For 14 compounds, DC50 and Dmax results are on record in patent publication US12570662B2, “Substituted pyrrolo[1,2-b]pyridazines as bifunctional degraders of interleukin-1 receptor-associated kinases” (Nurix Therapeutics, Inc., priority 2021, dated 2026).

The target in the assay is T1, IRAK4 (Homo sapiens, UniProt Q9NWZ3).
T1 construct: C-terminal HiBiT-tagged Jurkat cells (polyclonal cell line or clone 8D5); endogenous in cells; host or cells: Jurkat cells (polyclonal cell line or clone 8D5), HiBiT-tagged
T1 sequence (Q9NWZ3 1-460): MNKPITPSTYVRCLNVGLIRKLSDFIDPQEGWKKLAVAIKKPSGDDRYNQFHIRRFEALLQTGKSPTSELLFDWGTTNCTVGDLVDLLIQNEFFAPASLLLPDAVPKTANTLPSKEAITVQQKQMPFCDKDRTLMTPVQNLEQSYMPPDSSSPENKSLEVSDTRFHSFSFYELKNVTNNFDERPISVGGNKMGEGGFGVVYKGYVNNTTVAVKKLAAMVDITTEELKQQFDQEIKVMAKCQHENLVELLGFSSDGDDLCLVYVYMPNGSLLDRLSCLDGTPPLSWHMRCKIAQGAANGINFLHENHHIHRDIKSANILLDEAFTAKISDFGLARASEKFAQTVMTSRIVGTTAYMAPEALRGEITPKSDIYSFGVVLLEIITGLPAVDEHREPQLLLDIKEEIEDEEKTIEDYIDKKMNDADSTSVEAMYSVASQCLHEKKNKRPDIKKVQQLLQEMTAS
In words: IRAK4 Degradation HiBit Assay. It counts as cell-based. The following applies: C-terminal HiBiT-tagged Jurkat cells, 4 hrs incubation; for DC50: % IRAK4 remaining, four-parameter fit (IC50 used as DC50); for Dmax: from fit of % IRAK4 remaining, read-out: Dmax. As for the experimental part: Compound dilution series (11-point, 3.16-fold dilutions in DMSO, columns 1-11 and 12-22) at 500× the final required concentrations were prepared in Labcyte LDV 384-well plates (cat. no. LP-0200) using a Labcyte Echo 550 Liquid Handler. The 500× solutions ranged from 5 mM to 0.5 μM (final assay concentration range 10 μM to 0.1 nM). Using the Echo, the 500× solutions were stamped into white, 384-well assay plates (Corning, cat. no. 3570) at 60 nL/well. The following assay plate controls were also stamped at 60 nL/well: DMSO in wells E23-P23 (NC, Negative Control, maximum signal), 5 mM solution control compound al in wells A23-D23 and M24-P24 (AC, Active Control, minimum signal/background, 10 μM final assay concentration), control compound al dilution series in wells […] (12-point, 4-fold dilutions). C-terminal HiBiT-tagged Jurkat cells (polyclonal cell line or clone 8D5) were plated at 1×10^6 cells/mL, 30 μL/well (3×10^4 cells/well) in complete RPMI (10% FBS, 1% L-glutamine). Cells were incubated for 4 hrs at 32° C./6% CO2. Compound al has the following structure:
Following incubation, 30 μL of complete Nano-Glo HiBiT Lytic Detection Reagent (Nano-Glo HiBiT Lytic Buffer with 1:50 Nano-Glo HiBiT Lytic Substrate and 1:100 LgBiT Protein; Promega cat. no. N3040) was added. Cells were further incubated for 10 min at room temperature (RT). Luminescence units (LU) were read on an EnVision plate reader (Perkin Elmer, 0.1 sec per well). Percent IRAK4 remaining per sample was calculated as follows: […]
Using Graphpad Prism, % IRAK4 remaining values were plotted as a function of compound concentration. To determine DC50 and Dmax values, resulting curves were fit to the Prism curve-fitting equation “log (inhibitor) vs response-Variable slope (four parameters)” (reported best fit value IC50 used as DC50). Table 1 summarizes the biological data of Compounds of Examples 1-137 and 142-145 obtained from the assays described herein.

Consider `N#Cc1cnn2c(-c3cc(N[C@H]4CCOC4)c(-c4nnc(N5CCN(CC6CCN(c7ccc([C@H]8CCC(=O)NC8=O)cn7)CC6)CC5)s4)cn3)ccc2c1` (mixture of isomers) [Example 93, 7-[5-(5-{4-[(1-{5-[(3RS)-2,6-dioxopiperidin-3-yl]pyridin-2-yl}piperidin-4-yl)methyl]piperazin-1-yl}-1,3,4-thiadiazol-2-yl)-4-{[(3R)-oxolan-3-yl]amino}pyridin-2-yl]pyrrolo[1,2-b]pyridazine-3-carbonitrile], for which it took 16 nM to reach half-maximal degradation (DC50) and the Dmax (as a rule, the greatest extent of degradation seen) was determined as 115%.

In the case of `N#Cc1cnn2c(-c3cc(NC4CCC(F)(F)CC4)c(-c4nnc(N5CCN(CC6CCN(c7ccc(C8CCC(=O)NC8=O)cn7)CC6)CC5)s4)cn3)ccc2c1` (racemic) [Example 1, rac-7-{4-[(4,4-difluorocyclohexyl)amino]-5-(5-{4-[(1-{5-[(3R)-2,6-dioxopiperidin-3-yl]pyridin-2-yl}piperidin-4-yl)methyl]piperazin-1-yl}-1,3,4-thiadiazol-2-yl)pyridin-2-yl}pyrrolo[1,2-b]pyridazine-3-carbonitrile], it took 860 nM to reach half-maximal degradation (DC50) and the Dmax stood at 96%.

For `CC(C)Nc1cc(-c2ccc3cc(C#N)cnn23)ncc1-c1nnc(N2CC3CCC(C2)N3CC2CCN(c3ccc([C@H]4CCC(=O)NC4=O)cn3)CC2)s1` (racemic) [Example 2, rac-7-[5-(5-{8-[(1-{5-[(3R)-2,6-dioxopiperidin-3-yl]pyridin-2-yl}piperidin-4-yl)methyl]-3,8-diazabicyclo[3.2.1]octan-3-yl}-1,3,4-thiadiazol-2-yl)-4-[(propan-2-yl)amino]pyridin-2-yl]pyrrolo[1,2-b]pyridazine-3-carbonitrile], it took 53 nM to reach half-maximal degradation (DC50) and the Dmax was 67%.

As to `N#Cc1cnn2c(-c3cc(NC4CCOCC4)c(-c4nnc(N5CCN(CC6CCN(c7ccc(C8CCC(=O)NC8=O)c(F)c7)CC6)CC5)s4)cn3)ccc2c1` (racemic) [Example 3, rac-7-[5-(5-{4-[(1-{4-[(3R)-2,6-dioxopiperidin-3-yl]-3-fluorophenyl}piperidin-4-yl)methyl]piperazin-1-yl}-1,3,4-thiadiazol-2-yl)-4-[(oxan-4-yl)amino]pyridin-2-yl]pyrrolo[1,2-b]pyridazine-3-carbonitrile], the 50% degradation concentration (DC50) – broadly, the midpoint of the concentration-degradation curve – is 55 nM and the Dmax was determined as 93%.

As for `N#Cc1cnn2c(-c3cc(NC4CCOCC4)c(-c4nnc(N5CCN(CC6CCN(c7ccc(C8CCC(=O)NC8=O)cc7F)CC6)CC5)s4)cn3)ccc2c1` (racemic) [Example 4, rac-7-[5-(5-{4-[(1-{4-[(3R)-2,6-dioxopiperidin-3-yl]-2-fluorophenyl}piperidin-4-yl)methyl]piperazin-1-yl}-1,3,4-thiadiazol-2-yl)-4-[(oxan-4-yl)amino]pyridin-2-yl]pyrrolo[1,2-b]pyridazine-3-carbonitrile], the DC50 is 65 nM and the Dmax was 90%.

Regarding `CNc1cc(-c2ccc3cc(C#N)cnn23)ncc1-c1nnc([C@H]2CC[C@H](C(=O)N3CCc4cc([C@H]5CCC(=O)NC5=O)ccc4C3)CC2)s1` (racemic) [Example 5, 7-[4-(methylamino)-5-{5-[(1r,4r)-4-{6-[(3RS)-2,6-dioxopiperidin-3-yl]-1,2,3,4-tetrahydroisoquinoline-2-carbonyl}cyclohexyl]-1,3,4-thiadiazol-2-yl}pyridin-2-yl]pyrrolo[1,2-b]pyridazine-3-carbonitrile], half-maximal degradation (DC50) was put at 21 nM and the Dmax worked out at 79%.

Turning to `CNc1cc(-c2ccc3cc(C#N)cnn23)ncc1-c1nnc([C@H]2CC[C@H](CN3CCc4cc([C@H]5CCC(=O)NC5=O)ccc4C3)CC2)s1` (racemic) [Example 6, 7-[4-(methylamino)-5-{5-[(1r,4r)-4-({6-[(3RS)-2,6-dioxopiperidin-3-yl]-1,2,3,4-tetrahydroisoquinolin-2-yl}methyl)cyclohexyl]-1,3,4-thiadiazol-2-yl}pyridin-2-yl]pyrrolo[1,2-b]pyridazine-3-carbonitrile], the DC50 is 70 nM and the Dmax was 36%.

Take `CC(C)Nc1cc(-c2ccc3cc(C#N)cnn23)ncc1-c1nnc(N2CCN(CC3CCN(c4ccc(C5CCC(=O)NC5=O)cn4)CC3)C3(CC3)C2)s1` (racemic) [Example 7, rac-7-[5-(5-{4-[(1-{5-[(3R)-2,6-dioxopiperidin-3-yl]pyridin-2-yl}piperidin-4-yl)methyl]-4,7-diazaspiro[2.5]octan-7-yl}-1,3,4-thiadiazol-2-yl)-4-[(propan-2-yl)amino]pyridin-2-yl]pyrrolo[1,2-b]pyridazine-3-carbonitrile]: the DC50 amounted to 129 nM and the Dmax amounted to 17%.

Turning to `N#Cc1cnn2c(-c3cc(NC4CCOCC4)c(-c4nnc(N5CCN(CC6CCN(c7ccc(C8CCC(=O)NC8=O)cc7)CC6)CC5)s4)cn3)ccc2c1` (racemic) [Example 9, rac-7-[5-(5-{4-[(1-{4-[(3R)-2,6-dioxopiperidin-3-yl]phenyl}piperidin-4-yl)methyl]piperazin-1-yl}-1,3,4-thiadiazol-2-yl)-4-[(oxan-4-yl)amino]pyridin-2-yl]pyrrolo[1,2-b]pyridazine-3-carbonitrile], half-maximal degradation (DC50) was put at 69 nM and the Dmax worked out at 90%.

For the compound `CC(C)Nc1cc(-c2ccc3cc(C#N)cnn23)ncc1-c1nnc(N2CCN(C[C@@H]3CCN(c4ccc([C@H]5CCC(=O)NC5=O)cn4)C3)CC2)s1` (racemic) [Example 10, 7-{5-[5-(4-{[(3RS)-1-{5-[(3RS&)-2,6-dioxopiperidin-3-yl]pyridin-2-yl}pyrrolidin-3-yl]methyl}piperazin-1-yl)-1,3,4-thiadiazol-2-yl]-4-[(propan-2-yl)amino]pyridin-2-yl}pyrrolo[1,2-b]pyridazine-3-carbonitrile], the half-maximal degradation concentration (DC50) is 41 nM and the Dmax is 71%.

`N#Cc1cnn2c(-c3cc(NC4CCOCC4)c(-c4nnc(N5CCN(CC6CCN(c7cncc(C8CCC(=O)NC8=O)c7)CC6)CC5)s4)cn3)ccc2c1` (racemic) [Example 11, rac-7-[5-(5-{4-[(1-{5-[(3R)-2,6-dioxopiperidin-3-yl]pyridin-3-yl}piperidin-4-yl)methyl]piperazin-1-yl}-1,3,4-thiadiazol-2-yl)-4-[(oxan-4-yl)amino]pyridin-2-yl]pyrrolo[1,2-b]pyridazine-3-carbonitrile]: it took 32 nM to reach half-maximal degradation (DC50) and the Dmax came to 77%.

As for `N#Cc1cnn2c(-c3cc(NC4CCOCC4)c(-c4nnc(N5CCN(CC6CCN(c7cc(C8CCC(=O)NC8=O)ccn7)CC6)CC5)s4)cn3)ccc2c1` (racemic) [Example 12, rac-7-[5-(5-{4-[(1-{4-[(3R)-2,6-dioxopiperidin-3-yl]pyridin-2-yl}piperidin-4-yl)methyl]piperazin-1-yl}-1,3,4-thiadiazol-2-yl)-4-[(oxan-4-yl)amino]pyridin-2-yl]pyrrolo[1,2-b]pyridazine-3-carbonitrile], the 50% degradation concentration (DC50) came to 36 nM and the Dmax was determined as 60%.

`N#Cc1cnn2c(-c3cc(NC4CCOCC4)c(-c4nnc(N5CCN(C[C@@H]6CCN(c7ccc([C@H]8CCC(=O)NC8=O)cn7)C6)CC5)s4)cn3)ccc2c1` (racemic) [Example 13, 7-{5-[5-(4-{[(3RS)-1-{5-[(3RS&)-2,6-dioxopiperidin-3-yl]pyridin-2-yl}pyrrolidin-3-yl]methyl}piperazin-1-yl)-1,3,4-thiadiazol-2-yl]-4-[(oxan-4-yl)amino]pyridin-2-yl}pyrrolo[1,2-b]pyridazine-3-carbonitrile]: the 50% degradation concentration (DC50) is 32 nM and the Dmax is 66%.

On to `N#Cc1cnn2c(-c3cc(NC4CCOCC4)c(-c4nnc(N5CCN(CCC6CCN(c7ccc(C8CCC(=O)NC8=O)cn7)CC6)CC5)s4)cn3)ccc2c1` (racemic) [Example 14, rac-7-[5-(5-{4-[2-(1-{5-[(3R)-2,6-dioxopiperidin-3-yl]pyridin-2-yl}piperidin-4-yl)ethyl]piperazin-1-yl}-1,3,4-thiadiazol-2-yl)-4-[(oxan-4-yl)amino]pyridin-2-yl]pyrrolo[1,2-b]pyridazine-3-carbonitrile], for which the DC50 was determined as 70 nM and the Dmax is 81%.
